Data from publication PMC7334220, “Diamond Blackfan anemia is mediated by hyperactive Nemo-like kinase” (Nature Communications, 2020).

Tests used:
[1] = tested on: p38 phosphorylation; assay: p38 phosphorylation in treated cells (Western blot of pp38); format: cell-based, human; conditions: 100nM; rebuttal Experiment 12
[2] = tested on: RPS19-insufficient cord blood CD34+ HSPCs; assay: In vitro differentiation of cord blood CD34+ HSPCs transduced with shRNA against RPS19 (cell count and flow cytometry); format: cell-based, human; conditions: RPS19-insufficient erythroblasts treated at 100nM; rebuttal Experiment 12
Description: Cells were plated at 2000 cell per well in 96-well plates in the presence or absence of doxycycline. Relative amounts of live cells were quantified by luciferase-based Cell titer-Glo® assay. b TGFβR1 inhibitors were assessed for their ability to increase cell expansion in RPS19-insuffiency. As a control, vehicle alone (no doxycycline) is represented at the far left while all other samples were treated with doxycycline to induce RPS19-insufficiency. c Kit^+ erythroid progenitors were grown in the absence of doxycycline and in the presence of 10 µM of indicated compound. In addition, cells were treated with 5 ng/ml of TGFβ1 for 5 days before being subjected to Cell titer-Glo® assay. d Differentiating cord blood CD34^+ progenitors were transduced with shRNA against luciferase or RPS19 and treated with inhibitors at working concentrations for TGFβ inhibition every three days. […] Cells were counted and CD235^+ erythroid (i and iii) and CD11b^+ myeloid cell (ii and iv) percentages were determined by flow cytometry. The number of erythroid or myeloid cells is expressed as a percentage of the number of that lineage with no cytokine or drug treatment. Bars represent means ± SD with individual data points overlaid. n = 3 independent experiments performed in triplicate. Statistics: two-tailed Student’s t test, significant *p < 0.05. Also see Supplementary Fig. 1. Erythroid expansion is depicted in red while myeloid is in purple. Source data are provided as a Source Data file.
Cells were counted and assessed for cell surface expression of CD235. b Lin-Kit^+ hematopoietic progenitors were obtained from three mouse embryos expressing tetracycline-inducible shRNA against RPS19 at day E14.5 or three untreated mice, and thee mature RPL11^+/+ or three mature RPL11^+/lox mice treated with tamoxifen for eight weeks. […] Values were expressed as a percentage relative to untreated controls. c, d Intracellular phosphorylation of NLK at Thr298 was determined by capillary electrophoresis using the Peggy Sue™ Automated Western blotting platform. After lysis, 4 µg of protein from the CD235^+ population was probed against pThr298-NLK and normalized to GAPDH. […] After counting the total cell population, the ratio of CD235^+ erythroblasts was determined by flow cytometry and number of CD235^+ erythroblasts calculated. This was expressed as a percentage of the average number of erythroid cells present in untreated healthy controls. f NLK phosphorylation was assessed by capillary electrophoresis as above. Bars represent means ± SD with individual data points overlaid. […] Statistics: two-tailed Student’s t test, significant *p < 0.05. Also see Supplementary Fig. 8. Source data are provided as a Source Data file.
Primary human CD34^+ hematopoietic stem and progenitor cells were purified from cord or peripheral blood (New York Blood Center) or from human fetal liver tissue (Advanced Bioscience Resources and University of California, Los Angeles Center for AIDS Research) by using magnetic-activated cell sorting (Miltenyi Biotec) and were cryopreserved. Upon thawing, cells were cultured in x-Vivo15 media (Lonza) containing 10% fetal bovine serum, fms-related tyrosine kinase 3 (50 ng/ml), […] (50 ng/ml), interleukin-3 (IL-3; 20 ng/ml), interleukin-6 (IL-6; 20 ng/ml), and stem cell factor (50 ng/ml). When applied, TGFβ1 was added at 5 ng/ml. Kp53A1 cells were obtained from Javier Leon and cultured in DMEM supplemented with 10% fetal bovine serum at 37 or 32 °C.

[3] = tested on: NLK phosphorylation at Thr298; assay: SDS-PAGE / pThr298-NLK Western blot after NLK in vitro kinase reaction (rebuttal Experiment 6); format: biochemical, human; conditions: Day 7
Description: Experiment 5. Activated p38 and NLK have different kinase specificity for NLK, c- […]
Immunopurification of activated NLK and p38 were incubated in the presence of ATP, Mg2+ and immobilized, dephosphorylated substrates. After 30 mins, the degree of substrate phosphorylation was determined. Of the four substrates examined, NL K wa s the most phosphorylated substrate detected wit h p38. The extent of phosphorylation of the other substrates by p38 was normalized to NLK as substrate , i.e. NLK-100%, c-Myb -79%, Raptor-33%, ST AT 3 -18%. Raptor was the most phosphorylated substrate of NLK. Consequently, phosphorylation of other substrates by NLK is expressed as a percentage of NLK-mediated Raptor phosphorylation, i.e . NLK-37%, c-M yb -80%, […]
Conclusion: W hile p38 and NLK can phosphorylate NLK, c-Myb and Raptor in vitro, we observe different specificities between immunoprecipitated NLK and p38. This would […]
1) W estern blotting analysis or RadioIsotope ivk assay showing increase of NLK autophosphorylation activity (Graph data is not suitable. SDS-PAGE gel data with molecular maker is suitable to show the activity of NLK itself)
Response: We performed the W estern blot analysis as requested. Purified NLK incubated with immunopurified NLK from treated samples, were separated by SDS-PAGE and immunoblotted with pThr298- NLK antibody. […]

[4] = tested on: c-Myb; assay: c-Myb expression and phosphorylation in Kp53A1 cells switched to 32 °C (Western blot); format: cell-based; conditions: pretreated 30 min, 37 to 32 °C for 0, 16, 48 h, Fig. 7d
Description: (§1) Bars represent means ± SD with individual data points overlaid. n = 3 independent experiments performed in triplicate. […] Source data are provided as a Source Data file.
Inhibitors were added to cells at indicated concentrations with a final DMSO concentration of 0.5%. […] IC50 calculations were obtained using 8–9 concentrations of compound and generated using the IC50 Calculator software by AAT Bioquest®. NLK, p38, or ALK5 for in vitro kinase assays were immunopurified from Kp53A1 cells. NLK activation was induced by incubating cells at 32° for 24-48 h, p38 by stimulating with IL-3, IL-6, SCF, and Epo at the same concentrations used for differentiating erythroid progenitors.

[5] = tested on: NLK dimerization and p53; assay: YFP-/CFP-NLK FRET (NLK dimerization) and p53 flow cytometry in healthy bone marrow mononuclear cells; format: cell-based, human; conditions: Nutlin-3 24 h, control 6.6%, Fig. 6c, d
Excerpt: as §1

[6] = tested on: NLK dimerization and p53; assay: YFP-/CFP-NLK FRET (NLK dimerization) and p53 flow cytometry in cord blood CD34+ HSPCs; format: cell-based, human; conditions: d
Excerpt: Ribosome-insufficiency induces stabilization of p53 protein and contributes to DBA pathogenesis[27],[57]–[59]. […] To further examine the role of p53 in NLK activation in our model and DBA patient samples, we utilized Nutlin-3. Nutlin-3 inhibits the E3 ubiquitin ligase MDM2 binding of p53 and subsequently stabilizes p53 from ubiquitin-dependent degradation. NLK dimerizes upon activation[46] and the detection of FRET from dimerized YFP- and CFP-NLK pairs correlates with NLK activity in RPS19-insufficiency (Fig. 3d). […] We gated p53 expression into p53^low in which 6.6% of cells activate NLK, and p53^hi where 91.9% of cells activate NLK (Fig. 6b.ii). RPS19-insufficiency increased the p53^hi population from 8.1 to 34.1%, corresponding to an increase from 9.0 to 36.1% of cells with elevated NLK-dimerization (Fig. 6b.iii).
Fig. 6 NLK is activated in early erythroid progenitors and requires P53 stabilization in RPS19-insufficiency. a Cord blood CD34^+ progenitors were transduced with lentivirus expressing shRNA against luciferase (shLuc) or RPS19 (shRPS19) co-expressing GFP. Cells were also transduced with or without shRNA against p53 co-expressing mCherry. […] Cells were stained for p53 and both p53 and FRET was measured by flow cytometry. […] Bone marrow mononuclear cells from three DBA patients were pooled and analyzed simultaneously (iii). d Documentation of the percentage of cells with dimerizing NLK in p53^hi and p53^low is tabulated and can be compared with NLK in vitro kinase activity. e—green Samples were gated to include non-erythroid CD71^-CD235^- populations, MEP- and BFU-E-enriched CD71^lowCD235^- populations, CFU-E-enriched CD71^hiCD235^- populations and proerythroblast and intermediate erythroblast CD71^hiCD235^+ populations. […]

[7] = 3 days with Nutlin-3, Fig. 6b.ii

C[C@@H]1CN(Cc2ccc(F)cc2)[C@@H](C)CN1C(=O)c1cc2c(C(=O)C(=O)N(C)C)cn(C)c2cc1Cl [SCIO-469]
inhibition of p38 [1]: inhibited | increase in erythropoiesis in RPS19-insufficiency [2]: no increase

CNC(=O)c1ccc(C)c(-n2c(C)cc(OCc3ccc(F)cc3F)c(Br)c2=O)c1 [PH797804]
phosphorylation of NLK at Thr298 by NLK immunopurified from treated RPS19-insufficient cells [3]: not suppressed | inhibition of p38 [1]: inhibited | increase in erythropoiesis in RPS19-insufficiency [2]: no increase

CC(=O)N[C@@H](CSC(=O)[C@]1([C@@H](O)C(C)C)NC(=O)[C@H](C)[C@@H]1O)C(=O)O [lactacystin]
expression and phosphorylation of c-Myb after NLK activation [4]: sustained out to 48 h

COc1ccc(C2=N[C@@H](c3ccc(Cl)cc3)[C@@H](c3ccc(Cl)cc3)N2C(=O)N2CCNC(=O)C2)c(OC(C)C)c1 [Nutlin-3]
% P53hi [5]: 31.7% | % FREThi in P53hi [6, 7]: 91.9% | % FREThi in P53low [6, 7]: 6.6% | % FREThi (cells with NLK dimerization) ([6]; shLuc, 3 days with Nutlin-3, control 9.0%, Fig. 6b): 50.2%
